Experimental data: patent US10590085B2, “Heterocyclic amides as kinase inhibitors” (GlaxoSmithKline Intellectual Property Development Limited, priority 2015, dated 2020)
pIC50: −log10 of the molar value. Each block holds one molecule with its values, some of them ahead of it.

What was measured:
[1] = test system: TNF/zVAD induced temperature loss in mice; assay: TNF-driven systemic inflammatory response syndrome model using TNF plus zVAD (temperature loss); format: in vivo, mouse
[2] = test system: mouse L929 fibrosarcoma cells; assay: necroptosis assay in L929 cells; format: cell-based; settings: viability by cellular ATP (Cell Titer-Glo), read-out: mean pIC50, inhibition of necrosis in L929 cells (converted)
Procedure: The efficacy of RIP1 inhibitors can be tested […] in vitro using a human monocytic leukemia U937 or mouse L929 fibrosarcoma cells in a necroptosis assay. As determined using the method described in He, S. et al. 2009. Cell 137(6):1100-1111 and International Patent Appln. No. PCT/IB2014/059004, now, International Patent Appln. Pub.
Viability was measured by quantitating cellular levels of ATP using the Cell Titer-Glo kit. All data are means±standard deviation of the mean.

RIP1 kinase [3] = target: T1, RIP1 kinase (Homo sapiens, UniProt Q13546); assay: fluorescent polarization based binding assay; settings: mean value, minimum of 2 experiments
T1 sequence (Q13546 1-375 limits assumed): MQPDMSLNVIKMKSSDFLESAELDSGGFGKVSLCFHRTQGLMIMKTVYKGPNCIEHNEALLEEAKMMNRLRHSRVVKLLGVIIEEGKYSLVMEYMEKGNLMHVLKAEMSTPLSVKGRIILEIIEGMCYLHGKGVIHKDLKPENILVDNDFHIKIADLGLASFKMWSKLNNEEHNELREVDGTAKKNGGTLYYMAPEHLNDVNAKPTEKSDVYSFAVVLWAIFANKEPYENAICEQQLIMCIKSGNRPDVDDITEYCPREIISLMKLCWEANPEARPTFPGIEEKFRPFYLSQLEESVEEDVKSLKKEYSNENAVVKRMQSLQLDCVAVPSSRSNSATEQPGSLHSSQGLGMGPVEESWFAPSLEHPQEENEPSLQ
Source text: A fluorescent polarization based binding assay was used to asses the activity of the compounds of this invention, the details of which are disclosed in International Patent Appln. No. PCT/IB2014/059004, now, International Patent Appln. Pub.

[4] = test system: TNF induced temperature loss in mice; assay: TNF (alone) version of the systemic inflammatory response syndrome model (temperature loss); format: in vivo, mouse
Source text: The model can be run in a long modality (using TNF alone i.v.) which results in the termination of the study in ˜8 hrs (under IACUC guidelines for temperature loss). […] All data are shown as means±standard error of the mean.

RIP1 kinase [5] = settings: ischemic brain injury, retinal ischemia/reperfusion injury, Huntington's disease, renal ischemia reperfusion injury, cisplatin induced kidney injury, traumatic brain injury; cited from earlier work
[6] = background statement; cited from earlier work

Structure (SMILES): CC(C)(C)C(=O)N1N=CC[C@H]1c1ccccc1 [Example 13, (S)-2,2-dimethyl-1-(5-phenyl-4,5-dihydro-1H-pyrazol-1-yl)propan-1-one]
% Inhibition ([1]; 20 mg/kg IP, pre-dosed 15 minutes before i.v. mouse TNF (30 μg/mouse) and zVAD (0.4 mg/mouse)): 80%
IC50 [2]: ~5.01 nM

Structure (SMILES): CC(C)(C)C(=O)N1N=CC[C@H]1c1ccccn1 [Example 48, (S)-2,2-dimethyl-1-(5-(pyridin-2-yl)-4,5-dihydro-1H-pyrazol-1-yl)-propan-1-one]
% Inhibition ([1]; 0.5 mg/kg IP, pre-dosed 15 minutes before i.v. mouse TNF and zVAD): 17%
% Inhibition ([1]; 5 mg/kg IP, pre-dosed 15 minutes before i.v. mouse TNF and zVAD): 52%
% Inhibition ([1]; 50 mg/kg IP, pre-dosed 15 minutes before i.v. mouse TNF and zVAD): 91%
IC50 [2]: ~200 nM

Structure (SMILES): CC(C)(C)C(=O)N1N=CC[C@H]1c1ccc(Cl)cc1 [Example 66, (S)-1-(5-(4-chlorophenyl)-4,5-dihydro-1H-pyrazol-1-yl)-2,2-dimethyl-propan-1-one]
% Inhibition ([1]; 0.1 mg/kg IP, pre-dosed 15 minutes before i.v. mouse TNF and zVAD): 52%
IC50 [2]: ~0.00158 nM

pIC50 (RIP1 kinase [3]): ~7.50
Structure (SMILES): CC(=O)N1CCC(C(=O)N2N=CC[C@H]2c2cc(F)cc(F)c2)CC1 [Example 203, (S)-1-(4-(5-(3,5-difluorophenyl)-4,5-dihydro-1H-pyrazole-1-carbonyl)piperidin-1-yl)ethanone]
% Inhibition ([1]; 1 mg/kg PO, pre-dosed 15 minutes before i.v. mouse TNF and zVAD): 9%
% Inhibition ([1]; 10 mg/kg PO, pre-dosed 15 minutes before i.v. mouse TNF and zVAD): 46%
% Inhibition ([1]; 100 mg/kg PO, pre-dosed 15 minutes before i.v. mouse TNF and zVAD): 88%
% Inhibition ([4]; 1 mg/kg orally pre-dosed 15 minutes before i.v. mouse TNF (30 μg/mouse) alone): −14%
% Inhibition ([4]; 10 mg/kg orally pre-dosed 15 minutes before i.v. mouse TNF alone): 45%
% Inhibition ([4]; 100 mg/kg orally pre-dosed 15 minutes before i.v. mouse TNF alone): 86%

Structure (SMILES): CN1C(=O)C(Cc2c[nH]c3ccccc23)NC1=S (centres unmarked) [Necrostatin-1]
effectiveness in alleviating disease (RIP1 kinase [5]): effective
oral bioavailability [6]: poor
